Converted amounts (≈) assume the structure as drawn. Some results are limits rather than exact numbers.

For this data set the following is noted: buffer; pH 7.4; 200.0 µM.
As for `Cc1ccc(C(=O)N2CCN(CCNC(=O)C(=O)Nc3ccc(Cl)cc3)CC2)cc1`, the kinetic solubility was 2.6 µg/mL (≈ 6.06 µM). To `N#Cc1ccccc1COC(=O)CCC(=O)c1cccs1` belongs over 44.9 µg/mL; to `NC(=O)C[C@H](NC(=O)c1ccc(Cl)cc1)C(=O)OCc1ccccc1`, over 54.1 µg/mL.

`COc1ccc(S(=O)(=O)N(C)CC(=O)N2CCCCCC2)cc1` gave a kinetic solubility of over 51.1 µg/mL. To `COc1ccc(-c2cc(C3CC3)nc(N)c2C#N)cc1` belongs 1.7 µg/mL (≈ 6.41 µM). With `CN1CCN(S(=O)(=O)c2csc(C(N)=O)c2)CC1` the figure was over 43.4 µg/mL. `COc1ccc(NC(=O)C2CC(c3c(F)cccc3Cl)=NO2)cc1` (stereo not drawn) gave a solubility (kinetic) of 40.8 µg/mL (≈ 117 µM). `COc1cc(/C=C/c2[nH]c(=O)[nH]c(=O)c2[N+](=O)[O-])cc(OC)c1O`: the solubility (kinetic) was over 50.3 µg/mL. With `COc1ccc(OC)c(C(C)NC(=S)NC2CCCCC2)c1` (stereo not drawn) the figure was 28 µg/mL (≈ 86.8 µM).

As for `CCOC(=O)c1sc(SC)c2c1CCC/C2=N/OC`, the solubility (kinetic) is 0.7 µg/mL (≈ 2.34 µM). `Cc1ccc(S(=O)(=O)N(CC(=O)N2CCOCC2)c2ccc(C(C)C)cc2)cc1` displayed a kinetic solubility of 4.6 µg/mL (≈ 11 µM). `COc1cc(N2CCCC2)c(OC)cc1C=O` had a kinetic solubility of over 35.3 µg/mL. To `COc1ccc(NC(=O)C2=CN3CCS(=O)(=O)N=C3C=C2)c(OC)c1` belongs 37.8 µg/mL (≈ 104 µM); to `CC1(C)CC(=O)C=C(Nc2ccc(F)c(Cl)c2)C1`, over 40.2 µg/mL.

`COc1ccc(/C=C2\C(=O)NC(=S)N(C)C2=O)cc1C` registered a solubility (kinetic) of over 43.6 µg/mL. To `CCc1ccc(N2C(=O)CN(Cc3cccs3)C2=S)cc1` belongs under 0.3 µg/mL; to `CCN1CCN(c2nc(-c3ccc(F)cc3)cc(=O)[nH]2)CC1`, over 45.4 µg/mL; to `C=C(C)C(=O)Oc1ccc(N2C(=O)CCC2=O)cc1`, over 38.9 µg/mL.

`CC1CCCN(C(=O)COC(=O)Cc2c[nH]c3ccccc23)C1` (stereo not drawn) had a kinetic solubility of over 47.2 µg/mL. `CCCCOc1ccc(OCCNC(=O)c2ccco2)cc1`: the kinetic solubility stood at 22.5 µg/mL (≈ 74.2 µM). With `CC(CN1CCCCC1)OC(=O)COc1ccc(Cl)cc1.Cl` (stereo not drawn) the figure was over 52.2 µg/mL. Regarding `Cc1ccc(CNS(=O)(=O)c2ccc(C(F)(F)F)cc2)n1C`, the kinetic solubility was 30.6 µg/mL (≈ 92.1 µM). With `CCOCCn1c(N2CCCC2)nc2c1c(=O)[nH]c(=O)n2C` the figure was 45.2 µg/mL (≈ 147 µM). `CCCCC(=O)N1CC(=O)Nc2ccc(F)cc2C1c1ccccc1` (stereo not drawn) registered a kinetic solubility of over 51.1 µg/mL. `COCc1cc(C)nc(SCC(=O)Oc2ccccc2)c1C#N` yielded a solubility (kinetic) of 29.1 µg/mL (≈ 88.6 µM). To `COc1ccc(S(=O)(=O)NC(C)C(=O)NCc2ccncc2)cc1C` (stereo not drawn) belongs 51.9 µg/mL (≈ 143 µM). On to `CC1CN(C(=O)c2ccc(-c3ccccc3Cl)o2)CC(C)O1` (stereo not drawn), for which the solubility (kinetic) worked out at 34.8 µg/mL (≈ 109 µM). With `Cc1ccc2c(CN3CCCCC3CCO)cc(=O)oc2c1` (stereo not drawn) the figure was 39.4 µg/mL (≈ 131 µM); with `COc1ccc(N2CC(C(=O)Nc3cc(C)ccn3)CC2=O)cc1` (stereo not drawn), over 48.8 µg/mL; with `CCCCc1nnc(NC(=O)COC)s1`, over 34.4 µg/mL. To `O=C(c1cccc([N+](=O)[O-])c1)c1ccc2[nH]c(=O)[nH]c2c1` belongs 8 µg/mL (≈ 28.2 µM); to `CCc1cc(=O)[nH]c(SCC(=O)Nc2cc(C)on2)n1`, over 44.1 µg/mL; to `O=C(O)CCC(=O)Nc1ccc(S(=O)(=O)Nc2nccs2)cc1`, 51.4 µg/mL (≈ 145 µM).

Molecule `Cc1ccc(NC(=O)COC(=O)CNC(=O)c2ccco2)cc1` came in with a kinetic solubility of 44.7 µg/mL (≈ 141 µM). Regarding `CN(C)c1nc(/C=C(\C#N)C(N)=O)c(Cl)n1-c1ccc(F)cc1`, the solubility (kinetic) amounted to 8.3 µg/mL (≈ 24.9 µM). To `CC(C)C/C(=N/O)c1cn(C)c2ccccc12` belongs 21.5 µg/mL (≈ 93.4 µM); to `CC(C)c1nc2sc3c(=O)[nH]cnc3c2c2c1CCCC2`, under 0.2 µg/mL.

Regarding `CCOc1ccccc1N1C(=O)CC(=O)NC1=O`, the kinetic solubility is over 37.2 µg/mL.

Take `COc1cccc(NC(=O)CC(=O)c2ccccc2)c1`: the kinetic solubility was over 40.4 µg/mL. To `CN1CCN(C(=O)CC2(CC(=O)O)CCCC2)CC1.Cl` belongs over 45.7 µg/mL. With `CCCC/C(O)=C1\C(=O)CC(C)(C)CC1=NCCCCCC(=O)O` the figure was over 50.6 µg/mL. With `O=C(c1c[nH]c2ccccc12)C(F)(F)F` the figure was 20.2 µg/mL (≈ 94.8 µM). In turn, `CNc1nc(N)c([N+](=O)[O-])c(Nc2cccc(Cl)c2)n1` displayed a kinetic solubility of 0.4 µg/mL (≈ 1.36 µM).

Turning to `COc1ccc(CC(=O)N/N=C/c2cccs2)cc1OC`, the kinetic solubility was over 45.7 µg/mL.

On to `Cn1cc(C(=O)C(=O)N2CCc3ccccc32)c2ccccc21`, for which the solubility (kinetic) stood at 0.8 µg/mL (≈ 2.63 µM). With `Cc1ccc(NC(=S)Nc2ccc3[nH]c(=O)[nH]c3c2)cc1` the figure was 44 µg/mL (≈ 147 µM). `Cc1cc(=O)oc2cc(OCC(=O)Nc3nccs3)ccc12` showed a solubility (kinetic) of 4.1 µg/mL (≈ 13 µM).

Regarding `Cc1cc(C)nc(SCC(=O)NC2CCCC2)n1`, the solubility (kinetic) is over 39.8 µg/mL. To `COc1ccc(OCCN2CCOCC2)cc1` belongs 30.9 µg/mL (≈ 130 µM); to `CCC(C(=O)NCCc1ccccc1)c1ccccc1` (stereo not drawn), over 40.1 µg/mL; to `O=C(O)Cn1c(=O)c(-c2ccccc2)nc2ccccc21`, over 42 µg/mL.

On to `Cc1cccc(C(=O)OCC(=O)N2CC(=O)Nc3ccccc32)c1C`, for which the solubility (kinetic) was found to be 4.2 µg/mL (≈ 12.4 µM).

For `C=CCOc1cccc(/C=C\c2nc(O)c([N+](=O)[O-])c(=O)[nH]2)c1`, the kinetic solubility was over 47.3 µg/mL. To `CCOCC(=O)N1CCN(Cc2ccc3c(c2)OCO3)CC1` belongs over 46 µg/mL; to `O=[N+]([O-])/C(=C\Nc1ccc(F)cc1F)S(=O)(=O)c1ccccc1`, over 51 µg/mL; to `N/C(Cc1nc(-c2ccc(Cl)cc2)cs1)=N/O`, 32.3 µg/mL (≈ 121 µM). With `Cn1c(=O)c2c(O)c(Cc3ccccc3)c(=O)n(C)c2n(C)c1=O`, the kinetic solubility came out at 36 µg/mL (≈ 110 µM). To `O=C(Nc1ccc(F)cc1)Nc1ccccc1N1CCCCC1` belongs 0.3 µg/mL (≈ 0.957 µM). Regarding `Cc1csc(=O)n1CCC(=O)OC(C)C(=O)NCc1ccccc1` (stereo not drawn), the kinetic solubility is over 52.3 µg/mL.

Turning to `CC1CCc2ccccc2N1C(N)=Nc1ccccc1.Cl` (stereo not drawn), the kinetic solubility was over 45.3 µg/mL. For `OCC(CO)(CO)NC(=S)Nc1cc(Cl)cc(Cl)c1`, the kinetic solubility was 46.7 µg/mL (≈ 144 µM). To `CC(NCc1ccccc1C(F)(F)F)C(O)c1ccccc1.Cl` (stereo not drawn) belongs over 51.9 µg/mL; to `O=C(O)Cc1ccc(NS(=O)(=O)c2ccc3ccccc3c2)cc1`, over 51.2 µg/mL; to `CCOC(=O)C(C)Oc1ccc(NC(=O)C(Cl)(Cl)Cl)cc1` (stereo not drawn), 51.1 µg/mL (≈ 144 µM). The molecule `CCOC(=O)CN1C(=O)S/C(=C\c2ccc3c(c2)OCO3)C1=O` registered a kinetic solubility of 1.8 µg/mL (≈ 5.37 µM). Molecule `O=S(=O)(c1ccc2ccccc2c1)N1CCN(c2ccc(O)cc2)CC1` gave a solubility (kinetic) of 4.6 µg/mL (≈ 12.5 µM). With `Cc1ccc(SC(C)C(=O)N2CCC(C(N)=O)CC2)cc1` (stereo not drawn) the figure was 30.4 µg/mL (≈ 99.2 µM); with `CC(C)c1ccc(C(O)P(=O)(OCc2ccccc2)c2ccc(N(C)C)cc2)cc1` (stereo not drawn), 6.2 µg/mL (≈ 14.6 µM); with `O=C(C(=O)N1CCCC1)c1c[nH]c2ccccc12`, over 36.3 µg/mL.

`CC(C)C1CC(C(=O)Nc2ccccc2)C(=O)O1` (stereo not drawn) yielded a solubility (kinetic) of 34.9 µg/mL (≈ 141 µM). With `Cc1cc(C(=O)N/N=C/c2cn(C)nc2C)c2ccccc2n1` the figure was over 46.1 µg/mL; with `COC(=O)c1ccc(COC(=O)C2CCN(S(=O)(=O)c3ccccc3C(=O)OC)CC2)cc1`, 11 µg/mL (≈ 23.1 µM); with `Brc1ccc(CN2CCN(c3ccccc3)CC2)o1`, 22.5 µg/mL (≈ 70 µM).

By solubility (kinetic) is commonly meant the concentration staying in solution when a stock, usually in DMSO, is diluted into the medium.

Source of the values: PubChem BioAssay AID1996.
